# In patent publication US20240393319A1, “FLUORESCENT SENSORS AND METHODS OF MAKING AND USING” (Howard Hughes Medical Institute, priority 2023, published 2024):
# pKd: −log10 of the molar value. “Also recorded” adds a separate entry of the source.
# Legend:
# [1] = test system: LMTK- cells (parental fibroblast cell line); test: Green:red fluorescence (ATP) on treatment; type: cell-based, mouse; details: 10 mM 2dOG replacing glucose
# Experimental: (§1) Rho° and the parental LMTK-cells were maintained in T-75 flasks with DMEM+10% FBS+1 mM pyruvate+5 μM uridine. Two days prior to transfection, they were split into a 24-well plate (half Rho°, half LMTK) at 0.6 and 0.1 million cells per well, respectively. Cells were transfected with iATPSnFR2.HaloTag variants by lipofectamine (0.5 μg DNA+2 μL lipofectamine 2000 per well) for 4-6 hours in DMEM lacking FBS or antibiotics. Transfection media was replaced with fresh DMEM+10% FBS+penicillin/streptomycin overnight. Cells were labeled with JFX650 HaloTag ligand by adding the fluorophore to 100 nM for an hour. Cells were washed with Mammalian Cell Imaging Buffer and imaged in a Cytation 5 imaging reader (BioTek) over the course of about 2 hours. After about 20 minutes of imaging to establish a baseline fluorescence, the culture plate was removed from the instrument and buffer was replaced with the query buffer. The equilibration buffer contained 10 mM glucose, and the query buffers contained 10 mM 2dOG.
# (§2) Images were background subtracted and aligned for movement artefacts with the Gen5 software package that controls the Cytation 5 instrument. Images were assembled as TIF stacks and imported into ImageJ. […] Those ROIs were used to determine the ratio of green to red fluorescence for each well. […]
# Rho° (ρ^0) cells = test: Green:red fluorescence (ATP) on treatment; type: cell-based, mouse; details: 10 mM 2dOG replacing glucose
# Experimental: as §1, §2
# ChemoG-ATPSiR = details: read-out: affinity for ATP; cited from earlier work
# MaLion = details: cited from earlier work
# [2] = target: T1, iATPSnFR2 (L1-VLVG, L2-ICV, A95A, A119L; cpSFGFP inserted in epsilon subunit of Bacillus subtilis PS3 F0-F1 ATPase; SEQ ID NO: 1 / SEQ ID NO: 13) (Bacillus sp. PS3, UniProt P07678); test: Fluorescence response to ATP; type: biochemical
# T1 construct: QD to VL at junction, L1-VLVG, L2-ICV; E. coli BL21(DE3)pLysS, Ni-NTA; HaloTag-JFX650 fusion possible
# T1 sequence (P07678 whole entry, stated change not applied, the tested form may be a part): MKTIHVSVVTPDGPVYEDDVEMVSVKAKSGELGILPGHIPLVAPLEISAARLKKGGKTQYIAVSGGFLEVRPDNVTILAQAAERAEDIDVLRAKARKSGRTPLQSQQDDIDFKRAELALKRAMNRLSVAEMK
# Experimental: (grey) and 37° C. (black). Error bars are s.d. of three technical replicates. Fluorescence was measured in a Cytation 5 plate reader, which has relatively rapid heating.
# [3] = target: T2, iATPSnFR2.S29W.A95K.HaloTag-JFX650 (L1-VLVG, L2-ICV); cpSFGFP inserted in epsilon subunit of Bacillus subtilis PS3 F0-F1 ATPase; mutations A95K, S29W; SEQ ID NO: (Bacillus sp., UniProt P07678, A95K/DELINS96-108[…]/F67N/L78Y/N74K/S29W/V42K); test: ATP/nucleotide titration, binding curve fits; details: stopped flow
# T2 construct: polyhistidine tag (bacterial expression vector); made in house; host or cells: E. coli BL21 (DE3) pLysS
# T2 sequence (P07678 other isoform, or with tags, fused parts or gaps S29W/V42K/F67N/N74K/L78Y): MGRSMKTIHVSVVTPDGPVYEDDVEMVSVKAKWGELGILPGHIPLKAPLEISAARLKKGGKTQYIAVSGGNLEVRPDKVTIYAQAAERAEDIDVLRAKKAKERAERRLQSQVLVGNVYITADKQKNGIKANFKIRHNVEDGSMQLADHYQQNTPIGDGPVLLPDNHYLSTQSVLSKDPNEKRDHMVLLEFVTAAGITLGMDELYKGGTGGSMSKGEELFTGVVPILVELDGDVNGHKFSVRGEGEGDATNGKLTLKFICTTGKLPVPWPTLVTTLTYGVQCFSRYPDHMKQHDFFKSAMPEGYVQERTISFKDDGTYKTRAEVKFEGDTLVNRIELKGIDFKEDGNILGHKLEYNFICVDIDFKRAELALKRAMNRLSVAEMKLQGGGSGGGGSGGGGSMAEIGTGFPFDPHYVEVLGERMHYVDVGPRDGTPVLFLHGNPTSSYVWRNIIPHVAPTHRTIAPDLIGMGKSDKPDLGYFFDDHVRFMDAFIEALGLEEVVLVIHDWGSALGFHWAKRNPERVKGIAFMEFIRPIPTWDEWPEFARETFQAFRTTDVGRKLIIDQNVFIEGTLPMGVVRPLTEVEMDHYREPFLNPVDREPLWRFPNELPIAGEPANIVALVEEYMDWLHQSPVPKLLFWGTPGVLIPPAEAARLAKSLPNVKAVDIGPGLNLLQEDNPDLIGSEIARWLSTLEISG
# Description: (§3) (1A) Artistic rendering of iATPSnFR2.HaloTag made with PyMol. The N-terminal fragment (residues 1-109) of the epsilon subunit of ATPase (orange, based on 2E5Y.PDB) is fused to cpSFGFP (green). The C-terminus of cpSFGFP is fused to the residual ATP-binding helix (residues 110-129) of the epsilon subunit (pink), which itself is fused to HaloTag (cyan). “Linkers” are shown as sticks in yellow. […] HaloTag fluorophore is shown as sticks in red. […] (1C-1E) Ratio of green (iATPSnFR2) to red (HaloTag-JFX650) fluorescence in fibroblasts transfected with three affinity variants of iATPSnFR2-HaloTag. […] Cells were incubated for 21 minutes in buffer containing 10 mM glucose, and then switched to buffer containing 10 mM 2-deoxyglucose. (1C) Rho° cells. (1D) Parental LMTK cell line. (1E) Parental cell line treated with both 2-deoxyglucose and oligomycin.
# (§4) ATP (black), CTP (cyan), GTP (grey), TTP (purple).
# (§5) Purified protein was mixed with 1.1 molar equivalents of JFX650 HaloTag Ligand and incubated at room temperature for 1 hour and then at 4° C. overnight. Excess HaloTag Ligand was removed by gel filtration on a PD-10 column (GE Life Sciences) and re-concentrated by ultrafiltration.
# [4] = target: T3, iATPSnFR2.A95K.HaloTag-JFX650 (L1-VLVG, L2-ICV); cpSFGFP inserted in epsilon subunit of Bacillus subtilis PS3 F0-F1 ATPase; mutation A95K; SEQ ID NO: 5, without (Bacillus sp., UniProt P07678, A95K/DELINS96-108[…]/F67N/L78Y/N74K/V42K); test: ATP/nucleotide titration, binding curve fits; details: stopped flow
# T3 construct: polyhistidine tag (bacterial expression vector); made in house; host or cells: E. coli BL21 (DE3) pLysS
# T3 sequence (P07678 other isoform, or with tags, fused parts or gaps V42K/F67N/N74K/L78Y): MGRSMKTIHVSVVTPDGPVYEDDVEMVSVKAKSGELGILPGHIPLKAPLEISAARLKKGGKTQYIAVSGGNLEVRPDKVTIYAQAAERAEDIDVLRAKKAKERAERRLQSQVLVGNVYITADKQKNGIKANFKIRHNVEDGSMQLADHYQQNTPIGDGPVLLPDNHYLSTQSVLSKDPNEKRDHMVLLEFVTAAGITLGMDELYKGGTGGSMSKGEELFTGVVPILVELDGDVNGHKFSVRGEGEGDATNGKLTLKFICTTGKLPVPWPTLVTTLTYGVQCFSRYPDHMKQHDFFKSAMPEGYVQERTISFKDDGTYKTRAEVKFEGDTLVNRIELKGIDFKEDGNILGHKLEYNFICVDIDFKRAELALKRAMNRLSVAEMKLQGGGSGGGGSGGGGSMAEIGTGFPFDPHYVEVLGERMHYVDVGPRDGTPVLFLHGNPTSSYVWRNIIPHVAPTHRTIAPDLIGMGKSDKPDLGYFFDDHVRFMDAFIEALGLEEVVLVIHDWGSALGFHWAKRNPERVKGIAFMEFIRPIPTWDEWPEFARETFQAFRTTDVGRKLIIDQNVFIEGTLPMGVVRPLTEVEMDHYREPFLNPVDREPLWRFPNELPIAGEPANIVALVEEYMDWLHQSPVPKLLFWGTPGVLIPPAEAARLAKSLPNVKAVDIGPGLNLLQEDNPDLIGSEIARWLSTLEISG
# Description: as §3, §4, §5
# HaloTag-JF635 = test: Titration of HaloTag-JF635 with ATP; type: biochemical; details: FIG. 8B
# [5] = test system: iATPSnFR2.HaloTag-JFX650, three variants S29W.A95K, A95K and A95A.A119L; test: Stopped-flow kinetics of ATP binding; type: biochemical, Bacillus subtilis PS3; details: ATP 123-10000 μM
# Experimental: Panels are the sensor with a C-terminal fusion to HaloTag-JFX650. […] Fluorescence data collected on an Applied Photophysics SX-20 stopped-flow apparatus with 490 nm LED excitation and 525 nm long pass filter. Data points are average of 5 technical replicates.
# Final concentration of protein was thus 0.1 μM.
# [6] = test system: DJ-1 KD neurons, nerve terminals; test: Presynaptic ATP in DJ-1 knock-down neurons; type: cell-based, Sprague-Dawley rats; details: TZ
# Description: (§6) FIG. 11A-11H are experimental results showing that PARK7/DJ-1 is necessary for PGK1 driven hypometabolic resilience.
# (§7) An unbiased chemical screen recently led to the identification of an interaction between PGK1 and DJ-1, the product of the PARK7 gene, a genetic driver of familial PD. DJ-1 is a chaperone with strong structurally similarity to HSP31 but the precise clientele that it supports related to PD is poorly understood. To investigate whether DJ-1 has a functional impact on PGK1 function, we probed PGK1 rescue of hypometabolic synaptic function, but in absence of DJ-1. […] Furthermore, when glucose was substituted with a mixture of lactate and pyruvate, SV recycling kinetics in DJ-1 KD neurons was indistinguishable from control.
# DJ-1 KD neurons = test: Synaptic endurance in DJ-1 knock-down neurons; type: cell-based, Sprague-Dawley rats; details: TZ
# Description: as §6, §7
# [7] = test system: nerve terminals of primary hippocampal neurons; test: Presynaptic ATP dynamics with synapto-iATPSnFR2-miRFP670nano3; type: cell-based, rat; details: 0.1 mM glucose
# Description: For synapto-iATPSnFR2-miRFP670nano3 experiments, nerve terminals were selected in the miRFP670nano3 channels, blind to the ATPsnfr channel and then background subtracted. The traces are reported as iATPsnfr2 to miRFP670nano3 ratio, Fratio.
# [8] = test system: primary hippocampal neurons; test: Synaptic endurance (vGlutI-pH) under repeated stimulation in 0.1 mM glucose; type: cell-based, rat
# [9] = test system: nerve terminals of hippocampal neurons; test: Nerve terminal ATP in cultured neurons (iATPSnFR2.HaloTag-JFX650); type: cell-based, Sprague-Dawley rats
# [10] = test system: synaptic boutons of hippocampal neurons; test: Syn-iATPSnFR2.HaloTag imaging of ATP depletion in boutons; type: cell-based, rat; details: 5 mM glucose + 10 μM KA + 0.3 μM TTX
# [11] = test system: axonal mitochondria of primary hippocampal neurons; test: Mitochondrial ATP in primary hippocampal neurons (mito-iATPSnFR2.A95A.A119L.HaloTag); type: cell-based, Sprague-Dawley rats; details: 10 μM KA in 5 mM glucose
# Experimental: Primary neuronal cultures were prepared as previously described. Hippocampal CA1 to CA3 regions were dissected, dissociated, and plated onto poly-L-ornithine-coated coverslips. Plating media consisted of the minimal essential medium, 0.5% glucose, insulin (0.024 g/l), transferrin ([…]), GlutaMAX 1%, N-21 (2%), and fetal bovine serum (10%). After 1-3 days in vitro (DIV), cells were fed and maintained in media with the following modifications: cytosine β-D-arabinofuranoside (4 μM) and FBS 5%. Cultures were incubated at 37° C. in a 95% air/5% CO2 incubator. Calcium phosphate-mediated gene transfer was performed on DIV 6-8, and neurons were used for experiments on DIV 14-21.
# Coverslips were loaded onto a custom chamber, mounted on a […], 2.5 mM KCl, […], 25 mM HEPES, 2 mM CaCl2), 2 mM MgCl2, 50 μM DL-2-amino-5-phosphonovaleric acid (APV, AP5), 10 μM 6-cyano-7-nitroquinoxaline-2,3-dione (CNQX), adjusted to pH 7.4. […] Fluorescence was stimulated with OBIS 488 nm LX or OBIS 637 nm LS lasers (Coherent) passing through a laser speckle reducer (LSR 3005 at 12° diffusion angle, Optotune). […]
# Time series of imaging pairs (HaloTag and iATPSnFR2) were automated split into two independent image series using a custom-written Fiji routine to facilitate analysis. […] Synaptic boutons signals were analyzed using homemade script routines in Igor-pro v 6.3.7.2 (Wavemetric, Lake Oswego, OR, USA). […]
smiles,measurement,setting,value
"OC[C@H]1OC(O)C[C@@H](O)[C@@H]1O (stereo partly shown) [2dOG, 2-deoxyglucose]",change in green fluorescence (ATP),[1],decreased fluorescence only in the parental LMTK-cells expressing the weakest affinity variant (A95A.A119L)
same,change in green fluorescence (ATP),Rho° (ρ^0) cells,green fluorescence rapidly dropped; also recorded: significant decrease in fluorescence
Nc1ncnc2c1ncn2[C@@H]1O[C@H](COP(=O)(O)OP(=O)(O)OP(=O)(O)O)[C@@H](O)[C@H]1O [ATP],pKd,ChemoG-ATPSiR,~2.70
same,increase in fluorescence upon saturation with ATP,MaLion,~5 fold
same,ΔF/F in response to saturating ATP,[2],~12
same,rate of ATP binding compared with A95A.A119L,[3],bind ATP faster than the A95A.A119L variant
same,rate of ATP binding compared with A95A.A119L,[4],bind ATP faster than the A95A.A119L variant
same,sensitivity to ATP,HaloTag-JF635,"sensitive to ATP, albeit with low ΔF/F"
same,time to bind ATP,[5],within a one or two seconds
"COc1cc2nc(N3CCN(C(=O)C4CCCO4)CC3)nc(N)c2cc1OC (stereo not shown) [TZ, Terazosin]",acceleration of ATP production after burst of activity,[6],inability of TZ to accelerate ATP kinetics in absence of DJ-1
same,recycling restoration: slowing of SV recycling after intense stimulation,DJ-1 KD neurons,could not be reversed
same,resting (pre-stimulus) nerve terminal ATP,[7],slightly elevated; also recorded: higher starting ATP
same,ATP depletion during stimulation,[7]; 600 APs at 10 Hz,blunted; also recorded: significantly smaller activity-induced drops in ATP
same,ATP production following activity,[7]; DJ-1 KD neurons,no acceleration of ATP production; also recorded: inability of TZ to accelerate ATP kinetics
same,synaptic endurance in low glucose,[8]; 1 μM,ineffective
same,synaptic endurance in low glucose,[8]; 10 μM,conferred significant resilience
same,synaptic endurance in low glucose,[8]; 100 μM,either ineffective or likely deleterious
same,synaptic endurance in low glucose,"[8]; 0.1 mM glucose, concentration not given",confers significant resilience
same,synaptic endurance in low glucose,[8]; absence of DJ-1 (DJ-1 KD),completely failed to restore synaptic endurance
same,synaptic endurance in low glucose,[8]; neurons with shRNA targeting PGK1,eliminated
CC(C)[C@H]1CC[C@@]2(CO2)[C@H]2C(=O)OCC(C(=O)O)=C[C@H]12 [koningic acid],decline of average green to red ratio (ATP) without activity,[9]; 10 μM KA with 0.3 μM TTX,gradually declined over a 5-10 min period
same,time for ATP depletion in single boutons after delay,[9]; 10 μM KA with 0.3 μM TTX,10 to 20 s
same,change in fluorescence (ATP) during action potential firing,"[9]; 10 μM KA, 5 mM glucose, 50 Hz 6 sec",even greater decrease in fluorescence that did not recover within the minute and a half observation window
same,average green to red fluorescence ratio in boutons,[10],gradually declined over a 5-10 min period
same,change in mitochondrial ATP,[11],gradual decrease of [ATP]
